Measurements as given in publication PMC4286194 (Biochemical Journal, 2015).

Key:
Experiment in all cases: Kinase profiling
Format in all cases: biochemical
[1] = target: T1, EIF2AK3 (Homo sapiens, UniProt Q9NZJ5)
T1 sequence (Q9NZJ5 30-1116): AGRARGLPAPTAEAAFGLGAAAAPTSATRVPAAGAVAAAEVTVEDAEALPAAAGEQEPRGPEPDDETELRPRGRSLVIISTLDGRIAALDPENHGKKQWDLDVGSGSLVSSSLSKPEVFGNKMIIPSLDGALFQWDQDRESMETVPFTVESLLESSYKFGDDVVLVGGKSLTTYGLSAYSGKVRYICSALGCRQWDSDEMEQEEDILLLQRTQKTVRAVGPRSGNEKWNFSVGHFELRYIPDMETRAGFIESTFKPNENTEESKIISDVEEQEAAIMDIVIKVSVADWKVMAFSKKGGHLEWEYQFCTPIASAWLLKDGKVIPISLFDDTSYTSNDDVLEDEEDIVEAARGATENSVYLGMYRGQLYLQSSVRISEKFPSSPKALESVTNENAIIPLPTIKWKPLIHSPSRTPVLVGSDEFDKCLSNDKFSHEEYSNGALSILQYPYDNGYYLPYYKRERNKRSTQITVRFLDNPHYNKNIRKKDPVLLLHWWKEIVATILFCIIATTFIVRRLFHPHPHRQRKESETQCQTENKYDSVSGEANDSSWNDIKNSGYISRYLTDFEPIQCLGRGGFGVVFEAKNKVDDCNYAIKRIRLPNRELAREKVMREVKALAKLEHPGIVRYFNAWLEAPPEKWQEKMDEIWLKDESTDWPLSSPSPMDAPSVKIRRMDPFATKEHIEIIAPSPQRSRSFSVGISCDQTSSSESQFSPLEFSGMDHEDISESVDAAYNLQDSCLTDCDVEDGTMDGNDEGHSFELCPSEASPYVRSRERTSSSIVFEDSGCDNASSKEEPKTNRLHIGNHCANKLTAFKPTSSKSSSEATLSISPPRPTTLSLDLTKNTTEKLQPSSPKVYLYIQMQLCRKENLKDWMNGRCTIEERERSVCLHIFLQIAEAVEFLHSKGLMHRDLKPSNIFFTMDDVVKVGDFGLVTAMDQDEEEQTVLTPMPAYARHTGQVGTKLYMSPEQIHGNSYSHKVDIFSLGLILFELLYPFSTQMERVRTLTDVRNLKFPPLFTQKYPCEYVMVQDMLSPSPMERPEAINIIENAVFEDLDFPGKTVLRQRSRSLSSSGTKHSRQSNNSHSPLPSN

[2] = target: T2, IKK epsilon (Homo sapiens, UniProt Q14164)
T2 sequence (Q14164 1-716): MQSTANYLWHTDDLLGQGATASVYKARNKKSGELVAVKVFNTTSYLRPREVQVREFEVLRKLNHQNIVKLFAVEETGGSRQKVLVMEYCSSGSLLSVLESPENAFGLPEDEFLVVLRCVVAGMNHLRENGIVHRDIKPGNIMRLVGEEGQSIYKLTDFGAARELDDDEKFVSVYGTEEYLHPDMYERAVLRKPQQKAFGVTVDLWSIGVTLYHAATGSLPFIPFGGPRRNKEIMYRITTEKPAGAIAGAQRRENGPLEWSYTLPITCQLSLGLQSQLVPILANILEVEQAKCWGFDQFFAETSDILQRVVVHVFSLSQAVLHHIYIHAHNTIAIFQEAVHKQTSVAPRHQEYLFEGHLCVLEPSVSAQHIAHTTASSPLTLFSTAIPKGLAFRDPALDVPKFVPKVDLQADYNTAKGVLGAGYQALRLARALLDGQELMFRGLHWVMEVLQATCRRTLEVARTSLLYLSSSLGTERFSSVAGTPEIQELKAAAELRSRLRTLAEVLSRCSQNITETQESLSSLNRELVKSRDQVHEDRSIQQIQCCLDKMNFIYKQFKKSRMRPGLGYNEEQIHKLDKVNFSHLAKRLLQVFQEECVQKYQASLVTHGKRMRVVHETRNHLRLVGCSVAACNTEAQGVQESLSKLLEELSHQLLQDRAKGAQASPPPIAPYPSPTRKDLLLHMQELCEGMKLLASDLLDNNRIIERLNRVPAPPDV

[3] = target: IR (Homo sapiens, UniProt P06213)
Sequence of IR (P06213 28-1382): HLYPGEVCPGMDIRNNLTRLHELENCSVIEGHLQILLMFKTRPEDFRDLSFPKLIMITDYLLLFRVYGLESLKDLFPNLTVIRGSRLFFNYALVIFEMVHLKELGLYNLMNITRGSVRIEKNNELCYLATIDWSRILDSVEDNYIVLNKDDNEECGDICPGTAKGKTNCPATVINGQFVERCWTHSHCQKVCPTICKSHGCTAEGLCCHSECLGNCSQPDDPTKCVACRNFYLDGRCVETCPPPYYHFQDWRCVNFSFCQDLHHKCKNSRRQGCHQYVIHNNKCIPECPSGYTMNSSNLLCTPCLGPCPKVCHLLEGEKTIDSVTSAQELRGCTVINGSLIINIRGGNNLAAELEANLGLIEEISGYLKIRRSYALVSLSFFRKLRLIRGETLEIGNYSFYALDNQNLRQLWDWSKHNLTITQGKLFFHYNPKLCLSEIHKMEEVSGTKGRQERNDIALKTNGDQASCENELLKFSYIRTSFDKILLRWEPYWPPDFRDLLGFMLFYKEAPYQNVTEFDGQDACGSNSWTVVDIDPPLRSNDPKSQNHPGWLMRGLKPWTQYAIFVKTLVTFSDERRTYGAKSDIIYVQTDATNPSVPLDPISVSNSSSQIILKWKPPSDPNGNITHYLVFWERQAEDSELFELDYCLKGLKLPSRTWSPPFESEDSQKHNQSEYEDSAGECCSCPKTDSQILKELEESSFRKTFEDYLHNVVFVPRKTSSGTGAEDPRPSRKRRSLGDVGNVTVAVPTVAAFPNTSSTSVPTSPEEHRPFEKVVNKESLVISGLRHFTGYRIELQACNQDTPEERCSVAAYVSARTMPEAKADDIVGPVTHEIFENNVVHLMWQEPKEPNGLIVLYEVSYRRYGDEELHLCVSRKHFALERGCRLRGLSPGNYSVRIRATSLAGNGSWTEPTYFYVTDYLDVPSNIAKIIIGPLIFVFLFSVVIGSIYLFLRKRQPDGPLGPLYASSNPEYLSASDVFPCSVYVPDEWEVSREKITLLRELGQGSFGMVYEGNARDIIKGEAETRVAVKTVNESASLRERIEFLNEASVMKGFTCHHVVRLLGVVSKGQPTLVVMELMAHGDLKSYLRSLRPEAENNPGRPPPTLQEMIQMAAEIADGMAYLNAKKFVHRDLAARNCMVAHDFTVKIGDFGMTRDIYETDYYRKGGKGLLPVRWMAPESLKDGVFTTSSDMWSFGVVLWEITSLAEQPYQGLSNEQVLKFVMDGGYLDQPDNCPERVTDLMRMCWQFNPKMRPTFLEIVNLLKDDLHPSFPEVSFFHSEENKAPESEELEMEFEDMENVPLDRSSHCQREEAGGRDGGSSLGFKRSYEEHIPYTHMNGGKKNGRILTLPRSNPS

[4] = target: JAK2 (Homo sapiens, UniProt O60674)
[5] = target: MEKK1 (Homo sapiens, UniProt Q13233)
Sequence of MEKK1 (Q13233 whole entry): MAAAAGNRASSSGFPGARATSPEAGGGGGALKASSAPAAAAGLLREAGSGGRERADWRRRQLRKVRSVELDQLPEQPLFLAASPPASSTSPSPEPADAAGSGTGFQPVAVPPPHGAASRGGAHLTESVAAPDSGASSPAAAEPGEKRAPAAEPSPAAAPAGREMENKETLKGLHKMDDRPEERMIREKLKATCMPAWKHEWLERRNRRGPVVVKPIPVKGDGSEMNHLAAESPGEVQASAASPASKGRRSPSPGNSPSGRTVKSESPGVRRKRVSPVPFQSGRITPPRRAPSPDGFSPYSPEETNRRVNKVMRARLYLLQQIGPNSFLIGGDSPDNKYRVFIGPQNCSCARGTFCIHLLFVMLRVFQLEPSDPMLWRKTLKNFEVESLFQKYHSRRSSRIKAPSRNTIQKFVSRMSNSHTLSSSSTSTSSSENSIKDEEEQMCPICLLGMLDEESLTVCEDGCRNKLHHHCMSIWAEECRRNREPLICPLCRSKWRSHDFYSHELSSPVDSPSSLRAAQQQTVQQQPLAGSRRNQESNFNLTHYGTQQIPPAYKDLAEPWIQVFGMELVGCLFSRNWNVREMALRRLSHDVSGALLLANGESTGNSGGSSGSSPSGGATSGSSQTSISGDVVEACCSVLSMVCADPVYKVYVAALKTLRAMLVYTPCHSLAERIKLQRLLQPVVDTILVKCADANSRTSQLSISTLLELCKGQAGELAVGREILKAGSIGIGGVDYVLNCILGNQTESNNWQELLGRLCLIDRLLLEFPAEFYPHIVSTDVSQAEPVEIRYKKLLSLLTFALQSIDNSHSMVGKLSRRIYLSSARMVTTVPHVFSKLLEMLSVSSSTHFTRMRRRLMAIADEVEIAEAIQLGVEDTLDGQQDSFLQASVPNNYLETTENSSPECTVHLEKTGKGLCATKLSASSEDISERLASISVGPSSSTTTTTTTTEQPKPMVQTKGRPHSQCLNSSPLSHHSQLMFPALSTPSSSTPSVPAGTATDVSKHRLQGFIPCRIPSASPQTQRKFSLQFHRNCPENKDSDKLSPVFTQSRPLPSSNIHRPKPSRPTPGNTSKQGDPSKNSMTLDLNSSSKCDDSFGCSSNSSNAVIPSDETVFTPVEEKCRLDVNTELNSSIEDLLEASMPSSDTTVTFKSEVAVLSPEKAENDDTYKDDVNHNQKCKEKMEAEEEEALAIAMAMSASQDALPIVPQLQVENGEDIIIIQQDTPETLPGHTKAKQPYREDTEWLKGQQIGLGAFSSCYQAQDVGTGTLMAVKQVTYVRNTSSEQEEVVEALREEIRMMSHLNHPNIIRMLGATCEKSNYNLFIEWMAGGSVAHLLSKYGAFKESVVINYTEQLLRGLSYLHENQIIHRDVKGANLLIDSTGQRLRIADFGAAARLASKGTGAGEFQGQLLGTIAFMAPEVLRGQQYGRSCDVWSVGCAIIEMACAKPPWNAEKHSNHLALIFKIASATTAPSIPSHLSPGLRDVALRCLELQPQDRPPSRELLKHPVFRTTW

[6] = target: MINK1 (Homo sapiens, UniProt Q8N4C8)
[7] = target: T3, PINK (Tribolium castaneum, UniProt D6WMX4)
T3 sequence (D6WMX4 1-570): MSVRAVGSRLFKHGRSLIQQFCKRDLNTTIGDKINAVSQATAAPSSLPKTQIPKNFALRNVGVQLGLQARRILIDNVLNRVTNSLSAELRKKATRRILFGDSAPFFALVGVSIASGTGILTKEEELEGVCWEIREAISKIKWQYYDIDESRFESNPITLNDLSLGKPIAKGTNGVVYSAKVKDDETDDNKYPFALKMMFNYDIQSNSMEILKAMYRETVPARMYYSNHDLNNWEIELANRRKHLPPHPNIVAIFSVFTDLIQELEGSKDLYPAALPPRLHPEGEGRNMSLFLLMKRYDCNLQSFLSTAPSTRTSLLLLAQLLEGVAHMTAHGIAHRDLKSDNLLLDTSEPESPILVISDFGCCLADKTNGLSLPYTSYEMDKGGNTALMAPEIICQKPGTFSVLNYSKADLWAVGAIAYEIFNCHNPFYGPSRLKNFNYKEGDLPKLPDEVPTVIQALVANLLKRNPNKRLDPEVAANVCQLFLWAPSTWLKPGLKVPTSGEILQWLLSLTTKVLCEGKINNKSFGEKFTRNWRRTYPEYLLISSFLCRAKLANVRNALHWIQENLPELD

[8] = target: PKC alpha (Homo sapiens, UniProt P17252)
[9] = target: PRK2 (Homo sapiens, UniProt Q16513)
Sequence of PRK2 (Q16513 whole entry): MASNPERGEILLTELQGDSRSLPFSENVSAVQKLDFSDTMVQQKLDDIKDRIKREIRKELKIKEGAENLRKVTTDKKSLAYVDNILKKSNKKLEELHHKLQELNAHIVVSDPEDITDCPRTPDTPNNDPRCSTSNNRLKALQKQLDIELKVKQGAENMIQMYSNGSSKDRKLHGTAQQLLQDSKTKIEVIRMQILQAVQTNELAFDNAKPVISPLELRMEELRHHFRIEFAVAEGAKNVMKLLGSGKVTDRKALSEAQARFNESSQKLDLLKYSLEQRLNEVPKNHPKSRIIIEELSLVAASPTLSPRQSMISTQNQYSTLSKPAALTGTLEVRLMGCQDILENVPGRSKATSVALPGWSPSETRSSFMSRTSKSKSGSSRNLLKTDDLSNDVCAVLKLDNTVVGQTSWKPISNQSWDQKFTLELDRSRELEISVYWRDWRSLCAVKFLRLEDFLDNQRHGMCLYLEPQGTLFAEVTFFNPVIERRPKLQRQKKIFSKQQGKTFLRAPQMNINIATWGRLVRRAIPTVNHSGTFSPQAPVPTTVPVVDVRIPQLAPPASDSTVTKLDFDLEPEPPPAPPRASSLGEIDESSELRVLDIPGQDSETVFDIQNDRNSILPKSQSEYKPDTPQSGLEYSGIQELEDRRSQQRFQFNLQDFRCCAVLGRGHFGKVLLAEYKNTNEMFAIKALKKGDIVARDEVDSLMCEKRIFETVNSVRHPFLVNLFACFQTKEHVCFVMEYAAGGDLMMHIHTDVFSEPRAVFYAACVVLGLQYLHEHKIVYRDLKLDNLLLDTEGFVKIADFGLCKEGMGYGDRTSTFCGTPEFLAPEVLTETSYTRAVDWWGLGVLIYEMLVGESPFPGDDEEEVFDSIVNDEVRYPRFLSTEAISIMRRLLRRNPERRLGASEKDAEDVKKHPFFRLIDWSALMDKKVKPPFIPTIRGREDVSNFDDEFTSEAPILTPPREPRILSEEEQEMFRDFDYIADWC

SMILES | remaining activity at 0.1 µM [1] | remaining activity at 1 µM [1] | remaining activity at 0.1 µM [2] | remaining activity at 1 µM [2] | remaining activity at 0.1 µM [3] | remaining activity at 1 µM [3] | remaining activity at 0.1 µM [4] | remaining activity at 1 µM [4] | remaining activity at 0.1 µM [5] | remaining activity at 1 µM [5] | remaining activity at 0.1 µM [6] | remaining activity at 1 µM [6] | remaining activity at 0.1 µM [7] | remaining activity at 1 µM [7] | remaining activity at 0.1 µM [8] | remaining activity at 1 µM [8] | remaining activity at 0.1 µM [9] | remaining activity at 1 µM [9]
COc1cc(Nc2c(C#N)cnc3cc(OCCCN4CCN(C)CC4)c(OC)cc23)c(Cl)cc1Cl [Bosutinib, bosutinib] | 107 ± 5% | 103% | 46 ± 7% | 6% | 87 ± 7% | 107 ± 34% | 72 ± 5% | 26% | 95 ± 5% | 85 ± 6% | 5 ± 1% | 1% | 112 ± 9% | 125 ± 13% | 96 ± 5% | 103 ± 3% | 86 ± 6% | 56 ± 3%
Cc1nc(Nc2ncc(C(=O)Nc3c(C)cccc3Cl)s2)cc(N2CCN(CCO)CC2)n1 [Dasatinib] | 106 ± 6% | 113 ± 2% | 102 ± 5% | 123 ± 13% | 99 ± 2% | 94 ± 7% | 94 ± 2% | 42 ± 1% | 98 ± 4% | 102 ± 1% | 90 ± 4% | 51 ± 1% | 117 ± 1% | 133 ± 5% | 98 ± 3% | 105 ± 14% | 100 ± 2% | 101%
